pKd: −log10 of the molar value. Read-outs that look alike come from different tables or passages of the source. Blank lines part the entries; values can stand above or below the compound they belong to.
Assays:
[1] = HPLC stability studies at physiological temperature and pH; type: physicochemical; conditions: 500 μM in 50 mM Tris pH 7.5, 1 mM DTT, 37° C.
Experimental: To validate the installation of an N-acetyl as a non-hydrolyzable substitution, the stabilities of both 2′- and 3′-NAADPr were evaluated at physiological temperature and pH using conditions previously described (Borra et al., 2002, J. Biol. Chem. 277: 12632-12641). […] HPLC analysis of both 2′- and 3′-NAADPr using exact conditions indicated negligable decomposition (<1%) over 3 days and confirmed the stability of the acetyl funcitonality to spontaneous hydrolysis at physiological pH.
Reactions were carried out with both analogs (final concentration of 500 μM) in 50 mM Tris (pH 7.5 at 37° C.) containing 1 mM DTT. Samples were incubated at 37° C. over 3 days and four time points were collected (0, 24, 48, and 72 h). Each sample was quenched with H2O containing 0.05% TFA and analyzed by HPLC (analytical C18) using the method described in general procedures. Each trace was integrated (Shimadzu EZStart version 7.2.1 SP1) to determine peak area and analog percentage is shown in the following table 1. Both 2′- and 3′-NAADPr contained trace impurities at 12.9 and 12.5 min respectively and contributed to the observed degradation products visible at 23.3 min in each study.

human macroH2A1.1 domain [2] = molecular target: T1, human macroH2A1.1 domain (Homo sapiens, UniProt O75367); experiment: MacroH2A1.1 binding (calorimetry); conditions: method similar to Kustatcher
From the text: (§1) MacroH2A1.1 is an atypical histone variant associated with heterochromatin and implicated in transcriptional repression. […] The splice-variant MacroH2A1.2 was also studied, but no binding of ADPr was observed. The binding of 2′- and 3′-NAADPr may be evaluated using a protocol similar to that described by Kustatcher.

NudT9 [3] = molecular target: T2, NudT9 (Homo sapiens, UniProt Q9BW91); experiment: Nudix hydrolase hydrolysis by NudT9 (Michaelis-Menten); type: biochemical; conditions: substrate 5-300 μM, NudT9 100 ng
T2 sequence (Q9BW91 47-350): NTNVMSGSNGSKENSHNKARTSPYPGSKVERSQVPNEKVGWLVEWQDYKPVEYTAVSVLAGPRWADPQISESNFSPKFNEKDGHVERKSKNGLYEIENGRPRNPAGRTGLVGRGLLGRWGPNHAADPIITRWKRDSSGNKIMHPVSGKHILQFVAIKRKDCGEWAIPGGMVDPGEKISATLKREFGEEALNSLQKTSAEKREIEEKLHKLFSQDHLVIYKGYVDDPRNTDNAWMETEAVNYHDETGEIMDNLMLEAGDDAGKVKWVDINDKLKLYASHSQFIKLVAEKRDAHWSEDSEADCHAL
Experimental: (§2) The Nudix hydrolases, mNudT5 and YSA1, and NudT9 are a family of ADPr metabolizing enzymes. […] Reaction mixtures containing ADPr (5-300 μM) were incubated with NudT9 (100 ng) or YSA1 (10 ng). Michaelis-Menten plots were generated for the hydrolysis of ADPr by NudT9 and YSA1. […] The hydrolysis of 2′- and 3′-NAADPr is evaluated using a protocol similar to that described by Rafty.

YSA1 [4] = molecular target: T3, YSA1 (Saccharomyces cerevisiae, UniProt Q01976); experiment: Nudix hydrolase hydrolysis by YSA1 (Michaelis-Menten); type: biochemical, yeast; conditions: substrate 5-300 μM, YSA1 10 ng
T3 sequence (Q01976 1-231): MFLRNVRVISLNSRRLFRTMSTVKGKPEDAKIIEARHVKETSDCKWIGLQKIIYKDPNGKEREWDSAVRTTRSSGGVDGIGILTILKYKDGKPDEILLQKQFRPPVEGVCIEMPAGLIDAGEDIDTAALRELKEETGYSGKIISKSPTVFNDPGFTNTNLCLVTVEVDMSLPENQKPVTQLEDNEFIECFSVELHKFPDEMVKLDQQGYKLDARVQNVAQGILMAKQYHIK
Experimental: as §2

[5] = molecular target: splice-variant MacroH2A1.2 (Homo sapiens, UniProt O75367); experiment: MacroH2A1.2 binding (calorimetry); conditions: method similar to Kustatcher
From the text: as §1

human macroH2A1.1 domain [6] = molecular target: T1, human macroH2A1.1 domain; conditions: calorimetry, Kustatcher et al., 2005; cited from earlier work
[7] = within 3 h, physiological temperature and pH (Borra et al., 2002); cited from earlier work
NudT9 [8] = molecular target: T2, NudT9; conditions: in vitro (Rafty et al., 2002); cited from earlier work
mNudT5 = mNudT5 (Mus musculus, UniProt Q9JKX6); conditions: in vitro (Rafty et al., 2002); cited from earlier work
YSA1 [9] = molecular target: T3, YSA1; conditions: in vitro (Rafty et al., 2002); cited from earlier work

T1 sequence (O75367 184-367 limits assumed): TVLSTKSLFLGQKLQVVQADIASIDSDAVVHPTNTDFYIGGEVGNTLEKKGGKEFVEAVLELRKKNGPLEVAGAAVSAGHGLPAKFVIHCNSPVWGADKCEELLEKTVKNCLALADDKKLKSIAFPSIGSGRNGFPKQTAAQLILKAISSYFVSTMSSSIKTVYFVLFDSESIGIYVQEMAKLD
splice-variant MacroH2A1.2, sequence (O75367 1-372 isoform O75367-1): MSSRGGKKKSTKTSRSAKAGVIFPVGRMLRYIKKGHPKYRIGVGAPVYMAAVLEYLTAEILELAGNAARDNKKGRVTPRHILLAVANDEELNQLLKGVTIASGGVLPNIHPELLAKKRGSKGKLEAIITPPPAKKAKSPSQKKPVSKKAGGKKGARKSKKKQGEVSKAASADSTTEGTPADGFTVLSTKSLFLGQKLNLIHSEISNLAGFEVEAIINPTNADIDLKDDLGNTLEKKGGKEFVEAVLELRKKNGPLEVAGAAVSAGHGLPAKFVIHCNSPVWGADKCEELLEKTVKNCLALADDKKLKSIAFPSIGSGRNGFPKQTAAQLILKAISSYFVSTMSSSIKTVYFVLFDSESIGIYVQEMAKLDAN
mNudT5, sequence (Q9JKX6 whole entry): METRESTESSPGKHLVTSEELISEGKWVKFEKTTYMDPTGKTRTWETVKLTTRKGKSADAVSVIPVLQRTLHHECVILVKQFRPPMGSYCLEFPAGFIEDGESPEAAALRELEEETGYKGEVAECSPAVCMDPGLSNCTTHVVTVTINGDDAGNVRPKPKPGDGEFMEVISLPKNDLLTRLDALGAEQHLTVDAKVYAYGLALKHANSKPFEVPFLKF

Compound: 3′-N-Acetyl-ADP-ribose [3′-NAADPr]
analog percentage (HPLC peak area) ([1]; 0 h): 95.7%
analog percentage (HPLC peak area) ([1]; 24 h): 98.2%
analog percentage (HPLC peak area) ([1]; 48 h): 98.0%
analog percentage (HPLC peak area) ([1]; 72 h): 98.0%

pKd (human macroH2A1.1 domain [2]): 5.62
enthalpy (human macroH2A1.1 domain [2]): -15.4 kcal/mol
Km (NudT9 [3]): 23.9 µM
kcat (NudT9 [3]): 9.3 s⁻¹
Km (YSA1 [4]): 39.9 µM
kcat (YSA1 [4]): 6.5 s⁻¹
binding [5]: no binding
Compound: Nc1ncnc2c1ncn2[C@@H]1O[C@H](COP(=O)(O)OP(=O)(O)OC[C@H]2OC(O)[C@H](O)[C@@H]2O)[C@@H](O)[C@H]1O (stereo partly drawn) [ADPr, ADP-ribose]

analog percentage (HPLC peak area) ([1]; 0 h): 98.7%
analog percentage (HPLC peak area) ([1]; 24 h): 98.7%
analog percentage (HPLC peak area) ([1]; 48 h): 98.2%
analog percentage (HPLC peak area) ([1]; 72 h): 98.3%
Compound: CC(=O)NC1C(O)O[C@H](COP(=O)(O)OP(=O)(O)OC[C@H]2O[C@@H](n3cnc4c(N)ncnc43)C(O)C2O)[C@@H]1O (stereo partly drawn) [2′-NAADPr, 2′-N-Acetyl-ADP-ribose]

Compound: O-Acetyl-ADP-ribose [OAADPr]
pKd (human macroH2A1.1 domain [6]): ~5.70
enthalpy (human macroH2A1.1 domain [6]): -17.8 kcal/mol
hydrolyzed to ADPr [7]: approximately 18%
hydrolysis efficiency, less efficient as compared to ADPr (NudT9 [8]): 500 fold
hydrolysis to AMP and acetylated ribose 5′-phosphate (mNudT5): efficiently hydrolyze
hydrolysis to AMP and acetylated ribose 5′-phosphate (YSA1 [9]): efficiently hydrolyze

Source: patent US20070225246A1, “O-acetyl-ADP-ribose non-hydrolyzable analogs” (priority 2006, published 2007)
